Measurements as given in ChEMBL document CHEMBL4266003, “New Dopamine D3-Selective Receptor Ligands Containing a 6-Methoxy-1,2,3,4-tetrahydroisoquinolin-7-ol Motif” (ACS Med Chem Lett, 2018).
The source made the active and inactive calls. The rule behind the calls is not given here.

Assays:
D(2) dopamine receptor [1] = molecular target: T1, D(2) dopamine receptor (Homo sapiens, UniProt P14416); experiment: Displacement of [3H]N-Methylspiperone from human dopamine D2 receptor expressed in fibroblasts
Homo sapiens [2] = organism: Homo sapiens; experiment: Selectivity ratio of Ki for human dopamine D2 receptor expressed in fibroblasts to Ki for human dopamine D3 receptor expressed in HEKT cell membranes; type: cell-based
D(4) dopamine receptor = molecular target: T2, D(4) dopamine receptor (Homo sapiens, UniProt P21917); experiment: Displacement of [3H]N-Methylspiperone from human dopamine D4 receptor expressed in HEK cell membranes
T2 sequence (P21917 whole entry): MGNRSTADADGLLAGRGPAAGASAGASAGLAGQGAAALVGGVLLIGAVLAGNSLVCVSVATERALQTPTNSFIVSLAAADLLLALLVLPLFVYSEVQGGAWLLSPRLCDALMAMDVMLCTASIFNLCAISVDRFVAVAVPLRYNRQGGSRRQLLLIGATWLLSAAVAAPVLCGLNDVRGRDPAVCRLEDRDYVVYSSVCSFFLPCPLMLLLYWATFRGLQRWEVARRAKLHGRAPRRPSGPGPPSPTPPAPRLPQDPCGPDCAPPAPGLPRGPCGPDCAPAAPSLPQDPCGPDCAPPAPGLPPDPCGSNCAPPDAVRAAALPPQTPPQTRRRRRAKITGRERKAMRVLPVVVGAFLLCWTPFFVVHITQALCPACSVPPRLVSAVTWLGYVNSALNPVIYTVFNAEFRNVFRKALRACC

Homo sapiens [3] = organism: Homo sapiens; experiment: Selectivity ratio of Ki for human dopamine D1 receptor expressed in HEKT cell membranes to Ki for human dopamine D3 receptor expressed in HEKT cell membranes; type: cell-based
D(3) dopamine receptor [4] = molecular target: T3, D(3) dopamine receptor (Homo sapiens, UniProt P35462); experiment: Displacement of [3H]N-Methylspiperone from human dopamine D3 receptor expressed in HEKT cell membranes
D(1A) dopamine receptor [5] = molecular target: T4, D(1A) dopamine receptor (Homo sapiens, UniProt P21728); experiment: Displacement of [3H]SCH23390 from human dopamine D1 receptor expressed in HEKT cell membranes
D(2) dopamine receptor [6] = molecular target: T1, D(2) dopamine receptor; experiment: Inhibition of human dopamine D2 receptor expressed in HEKT cell membranes at 10 uM relative to control; type: cell-based
D(1A) dopamine receptor [7] = molecular target: T4, D(1A) dopamine receptor; experiment: Inhibition of human dopamine D1 receptor expressed in HEKT cell membranes at 10 uM relative to control; type: cell-based
D(3) dopamine receptor [8] = molecular target: T3, D(3) dopamine receptor; experiment: Antagonist activity at human dopamine D3 receptor assessed as inhibition of beta-arrestin recruitment by Tango assay; type: functional
D(3) dopamine receptor [9] = molecular target: T3, D(3) dopamine receptor; experiment: Agonist activity at human dopamine D3 receptor assessed as beta-arrestin recruitment by Tango assay; type: functional
[10] = molecular target: T5, D(4) dopamine receptor (Homo sapiens) (UniProt P21917); experiment: Inhibition of human dopamine D4 receptor expressed in HEKT cell membranes at 10 uM relative to control; type: cell-based
T5 sequence (whole entry): T2 sequence (P21917 whole entry)

T1 sequence (P14416 whole entry): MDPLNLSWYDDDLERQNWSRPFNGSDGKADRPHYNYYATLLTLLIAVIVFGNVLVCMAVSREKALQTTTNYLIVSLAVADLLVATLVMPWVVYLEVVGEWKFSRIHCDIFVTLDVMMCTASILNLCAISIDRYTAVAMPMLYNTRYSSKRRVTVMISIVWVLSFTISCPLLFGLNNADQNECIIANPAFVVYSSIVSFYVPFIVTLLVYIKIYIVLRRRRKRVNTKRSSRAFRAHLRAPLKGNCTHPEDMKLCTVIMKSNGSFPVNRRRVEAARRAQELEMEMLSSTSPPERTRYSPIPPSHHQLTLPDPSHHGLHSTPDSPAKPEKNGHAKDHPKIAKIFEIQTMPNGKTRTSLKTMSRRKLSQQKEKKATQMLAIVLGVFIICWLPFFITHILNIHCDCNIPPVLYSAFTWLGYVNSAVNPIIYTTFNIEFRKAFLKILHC
T3 sequence (P35462 whole entry): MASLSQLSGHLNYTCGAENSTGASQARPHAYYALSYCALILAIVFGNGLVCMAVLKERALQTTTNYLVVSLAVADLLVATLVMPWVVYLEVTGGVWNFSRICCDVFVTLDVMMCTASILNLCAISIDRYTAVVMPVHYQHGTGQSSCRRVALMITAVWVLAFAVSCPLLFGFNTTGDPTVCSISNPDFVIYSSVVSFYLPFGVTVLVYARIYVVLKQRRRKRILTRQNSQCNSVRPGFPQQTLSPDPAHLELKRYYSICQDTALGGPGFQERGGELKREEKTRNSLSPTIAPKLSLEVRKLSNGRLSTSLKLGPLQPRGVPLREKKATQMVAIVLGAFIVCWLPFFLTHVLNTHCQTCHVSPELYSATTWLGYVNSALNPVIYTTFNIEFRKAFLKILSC
T4 sequence (P21728 whole entry): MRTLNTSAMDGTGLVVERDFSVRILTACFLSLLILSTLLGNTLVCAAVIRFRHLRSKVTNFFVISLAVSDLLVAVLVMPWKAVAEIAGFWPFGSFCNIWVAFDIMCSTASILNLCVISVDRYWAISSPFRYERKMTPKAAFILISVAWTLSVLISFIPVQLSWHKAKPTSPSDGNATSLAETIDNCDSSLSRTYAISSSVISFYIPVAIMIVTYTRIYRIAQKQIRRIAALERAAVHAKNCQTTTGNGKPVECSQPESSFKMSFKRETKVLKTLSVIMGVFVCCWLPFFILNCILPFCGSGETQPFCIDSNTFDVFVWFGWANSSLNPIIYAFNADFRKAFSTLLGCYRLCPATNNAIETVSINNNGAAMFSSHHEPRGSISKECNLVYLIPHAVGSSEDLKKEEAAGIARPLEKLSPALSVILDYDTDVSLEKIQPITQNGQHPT

Row | Structure (SMILES) | Ki (D(2) dopamine receptor [1]) [nM] | Ki (D(4) dopamine receptor) [nM] | Ki (D(3) dopamine receptor [4]) [nM] | Ki (D(1A) dopamine receptor [5]) [nM] | inhibition (D(2) dopamine receptor [6]) [%] | inhibition (D(1A) dopamine receptor [7]) [%] | EC50 (D(3) dopamine receptor [8]) [nM] | Activity (D(3) dopamine receptor [9]) | inhibition [10] [%] | Ratio Ki (Homo sapiens [2]) | Ratio Ki (Homo sapiens [3])
1 | COc1cc2c(cc1O)CN(CCCCNC(=O)c1ccc(-c3ccccc3)cc1)CC2 | 800 | 720 | 2.7 | 800 | – | – | – | – | – | 296 | 296
2 | COc1cccc(C(=O)NCCCCN2CCc3cc(OC)c(O)cc3C2)c1 | – | 150 | 12 | – | < 50 | < 50 | – | – | – | – | –
3 | COc1cc2c(cc1O)CN(CCCCNC(=O)c1ccncc1)CC2 | – | 1400 | 24 | – | < 50 | < 50 | – | – | – | – | –
4 | COc1ccc(C(=O)NCCCCN2CCc3cc(OC)c(O)cc3C2)cc1 | – | 560 | 5.9 | – | < 50 | < 50 | 360 | inactive | – | – | –
5 | COc1cc2c(cc1OC)CN(CCCCNC(=O)c1ccc(C#N)cc1)CC2 | – | – | 410 | – | < 50 | < 50 | – | – | < 50 | – | –
6 | COc1cc2c(cc1O)CN(CCCCNC(=O)c1ccc3ccccc3c1)CC2 | 700 | 170 | 2.7 | 800 | – | – | – | – | – | 260 | 296
7 | COc1cc2c(cc1O)CN(CCCCNC(=O)c1ccc(C#N)cc1)CC2 | – | – | 6.3 | – | < 50 | < 50 | 1400 | inactive | < 50 | – | –
8 | COc1cc2c(cc1O)CN(CCCCNC(=O)c1ccc(C(N)=O)cc1)CC2 | 860 | – | 28 | – | – | < 50 | – | – | < 50 | 31 | –
9 | COc1cc2c(cc1O)CN(CCCCNC(=O)c1ccnc3ccccc13)CC2 | – | 410 | 22 | 1810 | < 50 | – | – | – | – | – | 82

Second part, led by results:

Row | Ki (D(2) dopamine receptor [1]) [nM] | Ki (D(4) dopamine receptor) [nM] | Ki (D(3) dopamine receptor [4]) [nM] | Ki (D(1A) dopamine receptor [5]) [nM] | inhibition (D(2) dopamine receptor [6]) [%] | inhibition (D(1A) dopamine receptor [7]) [%] | EC50 (D(3) dopamine receptor [8]) [nM] | Activity (D(3) dopamine receptor [9]) | inhibition [10] [%] | Structure (SMILES) | Ratio Ki (Homo sapiens [2]) | Ratio Ki (Homo sapiens [3])
10 | > 10000 | 350 | 3.4 | 500 | – | – | – | – | – | COc1cc2c(cc1O)CN(CCCCNC(=O)c1ccc(Br)cc1)CC2 | > 2940 | 147
11 | – | 1500 | 10 | 1600 | < 50 | – | – | – | – | COc1cc2c(cc1O)CN(CCCCNC(=O)c1ccc(I)cc1)CC2 | – | 160
12 | – | 660 | 8.7 | – | < 50 | < 50 | 420 | inactive | – | COc1cc2c(cc1O)CN(CCCCNC(=O)c1ccc(O)cc1)CC2 | – | –
13 | 1100 | 140 | 2.1 | 680 | – | – | – | – | – | COc1cc2c(cc1O)CN(CCCCNC(=O)c1ccc(Cl)cc1)CC2 | 524 | 323
14 | – | 95 | 4.4 | – | < 50 | < 50 | 490 | inactive | – | COc1cc2c(cc1O)CN(CCCCNC(=O)c1ccc(F)cc1)CC2 | – | –
